Laboratory results from the supplement of paper PMC6045584.
± gives the standard deviation of the averaged measurements.

Experiments:
FLAVOPIRIDOL = compound: CN1CC[C@H](c2c(O)cc(O)c3c(=O)cc(-c4ccccc4Cl)oc23)[C@H](O)C1 [FLAVOPIRIDOL]; experiment: surviving fraction relative to DMSO-only wells; higher = less growth inhibition; conditions: exposure time: 5 days
Method in brief: (§1)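 For each tumour cell line, log-phase cells were put into 384-well plates at 250–500 cells per well, then after 24 hours exposed continuously for five days to inhibitors at 0.5, 1, 5, 10, 50, 100, 500 and 1000 nM. Viability was assessed by CellTiter-Glo luminescence, with surviving fraction expressed relative to the median of DMSO-only wells. Lines were screened three times and retained only if replicate Pearson r exceeded 0.7 and median Z' exceeded 0.3.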

DOXORUBICIN = compound: COc1cccc2c1C(=O)c1c(O)c3c(c(O)c1C2=O)C[C@@](O)(C(=O)CO)C[C@@H]3O[C@H]1C[C@H](N)[C@H](O)[C@H](C)O1 [DOXORUBICIN]; experiment: as above; conditions: exposure time: 5 days
Method in brief: as §1

Row | Test System | surviving fraction (FLAVOPIRIDOL; 0.5 nM) | surviving fraction (FLAVOPIRIDOL; 1 nM) | surviving fraction (FLAVOPIRIDOL; 5 nM) | surviving fraction (FLAVOPIRIDOL; 10 nM) | surviving fraction (FLAVOPIRIDOL; 50 nM) | surviving fraction (FLAVOPIRIDOL; 100 nM) | surviving fraction (FLAVOPIRIDOL; 500 nM) | surviving fraction (FLAVOPIRIDOL; 1000 nM) | surviving fraction (DOXORUBICIN; 0.5 nM) | surviving fraction (DOXORUBICIN; 1 nM) | surviving fraction (DOXORUBICIN; 5 nM) | surviving fraction (DOXORUBICIN; 10 nM) | surviving fraction (DOXORUBICIN; 50 nM) | surviving fraction (DOXORUBICIN; 100 nM) | surviving fraction (DOXORUBICIN; 500 nM) | surviving fraction (DOXORUBICIN; 1000 nM)
1 | PCI30 HEADNECK | 1.02 ± 0.019 | 1.02 ± 0.038 | 1.15 ± 0.031 | 1.13 ± 0.029 | 0.701 ± 0.028 | 0.085 ± 0.0053 | 0.032 ± 0.0017 | 0.0303 ± 0.00058 | 0.979 ± 0.094 | 0.929 ± 0.01 | 0.92 ± 0.13 | 0.637 ± 0.061 | 0.551 ± 0.022 | 0.587 ± 0.024 | 0.079 ± 0.023 | 0.03 ± 0.0027
2 | ZR751 BREAST | 1.28 ± 0.14 | 1.25 ± 0.051 | 1.21 ± 0.037 | 1.25 ± 0.033 | 1.108 ± 0.0081 | 0.453 ± 0.057 | 0.089 ± 0.0095 | 0.0853 ± 0.0065 | 1.12 ± 0.095 | 1.08 ± 0.16 | 0.786 ± 0.074 | 0.846 ± 0.12 | 0.585 ± 0.047 | 0.361 ± 0.054 | 0.174 ± 0.018 | 0.0463 ± 0.00058
3 | 22RV1 PROSTATE | 1.04 ± 0.12 | 0.928 ± 0.16 | 0.953 ± 0.11 | 0.893 ± 0.2 | 0.897 ± 0.11 | 0.405 ± 0.14 | 0.124 ± 0.11 | 0.118 ± 0.086 | 1.02 ± 0.018 | 0.917 ± 0.047 | 0.618 ± 0.055 | 0.416 ± 0.047 | 0.222 ± 0.03 | 0.119 ± 0.026 | 0.024 ± 0.001 | 0.0357 ± 0.0025
4 | HT1080 SOFT TISSUE | 1.05 ± 0.027 | 1.05 ± 0.02 | 1.03 ± 0.029 | 1.016 ± 0.0044 | 0.4973 ± 0.0011 | 0.193 ± 0.024 | 0.061 ± 0.003 | 0.0633 ± 0.0021 | 0.992 ± 0.01 | 0.95 ± 0.041 | 0.553 ± 0.0044 | 0.333 ± 0.037 | 0.265 ± 0.0078 | 0.222 ± 0.018 | 0.0267 ± 0.00058 | 0.0437 ± 0.0045
5 | SG28 HEADNECK | 1.11 ± 0.096 | 1.1 ± 0.023 | 1.02 ± 0.081 | 1.04 ± 0.099 | 0.594 ± 0.089 | 0.0495 ± 0.0064 | 0.0315 ± 0.00071 | 0.032 ± 0.0028 | 1.11 ± 0.12 | 1.11 ± 0.083 | 0.976 ± 0.081 | 1.03 ± 0.011 | 0.851 ± 0.13 | 0.609 ± 0.014 | 0.0457 ± 0.0098 | 0.038 ± 0.0036
6 | MG63 BONE | 1.06 ± 0.022 | 1.06 ± 0.023 | 1.165 ± 0.0064 | 1.19 ± 0.033 | 1.35 ± 0.045 | 0.782 ± 0.049 | 0.0347 ± 0.0023 | 0.0313 ± 0.0015 | 1.02 ± 0.041 | 1.04 ± 0.053 | 1.04 ± 0.022 | 1.03 ± 0.028 | 0.21 ± 0.014 | 0.16 ± 0.025 | 0.0327 ± 0.0025 | 0.031 ± 0.0017
7 | NCIH441 LUNG | 1.18 ± 0.06 | 1.12 ± 0.026 | 1.09 ± 0.042 | 1.08 ± 0.11 | 0.953 ± 0.081 | 0.698 ± 0.17 | 0.103 ± 0.024 | 0.0917 ± 0.024 | 1.04 ± 0.054 | 1.06 ± 0.051 | 0.937 ± 0.032 | 0.799 ± 0.029 | 0.558 ± 0.013 | 0.461 ± 0.024 | 0.246 ± 0.019 | 0.096 ± 0.0069
8 | COLO320DM LARGE INTESTINE | 1.1 ± 0.11 | 1.09 ± 0.086 | 1.08 ± 0.14 | 1.01 ± 0.12 | 0.503 ± 0.0073 | 0.0807 ± 0.0055 | 0.0493 ± 0.00076 | 0.0478 ± 0.0036 | 1.07 ± 0.064 | 1.13 ± 0.02 | 1.13 ± 0.12 | 1.09 ± 0.035 | 1.05 ± 0.091 | 0.787 ± 0.14 | 0.446 ± 0.014 | 0.388 ± 0.02
9 | HCC1954 BREAST | 1.16 ± 0.0025 | 1.12 ± 0.063 | 1.49 ± 0.18 | 1.12 ± 0.23 | 0.361 ± 0.1 | 0.0465 ± 0.0057 | 0.0345 ± 0.0014 | 0.0318 ± 0.0039 | 1.03 ± 0.19 | 0.955 ± 0.18 | 0.829 ± 0.015 | 0.772 ± 0.058 | 0.465 ± 0.067 | 0.169 ± 0.0085 | 0.0355 ± 0.00071 | 0.0328 ± 0.00035
10 | SIHA CERVIX | 1.07 ± 0.041 | 1.05 ± 0.067 | 1.1 ± 0.081 | 1.03 ± 0.032 | 0.714 ± 0.045 | 0.336 ± 0.056 | 0.0243 ± 0.0015 | 0.023 ± 0.001 | 0.996 ± 0.084 | 0.998 ± 0.08 | 1.04 ± 0.053 | 0.9867 ± 0.0011 | 0.505 ± 0.04 | 0.481 ± 0.0086 | 0.0967 ± 0.061 | 0.0287 ± 0.00058
11 | HELA CERVIX | 0.987 ± 0.041 | 0.962 ± 0.045 | 1.03 ± 0.086 | 0.936 ± 0.018 | 1.16 ± 0.053 | 0.691 ± 0.027 | 0.0347 ± 0.001 | 0.0268 ± 0.00029 | 0.998 ± 0.055 | 1.03 ± 0.022 | 0.897 ± 0.029 | 0.595 ± 0.031 | 0.316 ± 0.007 | 0.309 ± 0.022 | 0.0252 ± 0.00076 | 0.0252 ± 0.0013
12 | CAL72 BONE | 1.09 ± 0.1 | 1.06 ± 0.021 | 1.05 ± 0.049 | 0.982 ± 0.04 | 0.649 ± 0.053 | 0.142 ± 0.053 | 0.0577 ± 0.0032 | 0.0577 ± 0.0076 | 1.05 ± 0.041 | 0.743 ± 0.018 | 1.01 ± 0.033 | 0.826 ± 0.045 | 0.298 ± 0.042 | 0.299 ± 0.018 | 0.0937 ± 0.0021 | 0.114 ± 0.0055
13 | MDAMB468 BREAST | 1.03 ± 0.031 | 0.967 ± 0.064 | 1.03 ± 0.045 | 0.991 ± 0.04 | 0.734 ± 0.061 | 0.15 ± 0.016 | 0.0447 ± 0.005 | 0.04 ± 0.0061 | 0.897 ± 0.065 | 0.931 ± 0.075 | 0.992 ± 0.039 | 0.969 ± 0.013 | 0.49 ± 0.18 | 0.342 ± 0.006 | 0.11 ± 0.035 | 0.038 ± 0.0072
14 | LM7 BONE | 1.06 ± 0.022 | 1.08 ± 0.096 | 1.15 ± 0.11 | 1.1 ± 0.091 | 0.824 ± 0.031 | 0.446 ± 0.016 | 0.0593 ± 0.0038 | 0.0543 ± 0.0029 | 0.95 ± 0.033 | 1.05 ± 0.073 | 0.902 ± 0.051 | 0.818 ± 0.014 | 0.245 ± 0.016 | 0.229 ± 0.018 | 0.0483 ± 0.0038 | 0.0483 ± 0.0065
15 | 143B BONE | 1.12 ± 0.14 | 1.11 ± 0.086 | 1.11 ± 0.048 | 1.11 ± 0.095 | 0.824 ± 0.024 | 0.279 ± 0.0035 | 0.045 ± 0.0028 | 0.042 ± 0.0028 | 1 ± 0.018 | 1.02 ± 0.0085 | 0.957 ± 0.0099 | 0.827 ± 0.013 | 0.417 ± 0.027 | 0.2785 ± 0.00071 | 0.0605 ± 0.0035 | 1.008 ± 0.0092
16 | CADOES1 SOFT TISSUE | 0.844 ± 0.099 | 0.924 ± 0.062 | 0.843 ± 0.13 | 0.888 ± 0.082 | 0.332 ± 0.062 | 0.146 ± 0.054 | 0.0357 ± 0.0051 | 0.038 | 0.93 ± 0.061 | 0.795 ± 0.037 | 0.926 ± 0.078 | 0.812 ± 0.12 | 0.573 ± 0.052 | 0.323 ± 0.035 | 0.093 ± 0.0087 | 0.0643 ± 0.011
17 | NOS1 BONE | 1.25 ± 0.046 | 1.19 ± 0.054 | 1.22 ± 0.15 | 1.26 ± 0.084 | 0.54 ± 0.061 | 0.083 ± 0.0027 | 0.031 ± 0.004 | 0.0383 ± 0.0084 | 1.16 ± 0.077 | 0.972 ± 0.051 | 0.982 ± 0.1 | 0.643 ± 0.074 | 0.752 ± 0.11 | 0.455 ± 0.036 | 0.106 ± 0.013 | 0.0487 ± 0.0068
18 | MDAMB231 BREAST | 0.99 ± 0.022 | 0.9902 ± 0.0098 | 1.02 ± 0.042 | 0.995 ± 0.039 | 0.833 ± 0.018 | 0.372 ± 0.028 | 0.0403 ± 0.0017 | 0.0366 ± 0.0017 | 0.979 ± 0.029 | 0.992 ± 0.037 | 0.946 ± 0.024 | 0.817 ± 0.026 | 0.53 ± 0.014 | 0.474 ± 0.011 | 0.125 ± 0.0043 | 0.0638 ± 0.0041
19 | HSSYII SYNOVIAL | 0.999 ± 0.021 | 0.993 ± 0.025 | 1.01 ± 0.083 | 0.907 ± 0.037 | 0.564 ± 0.034 | 0.145 ± 0.017 | 0.0215 ± 0.0005 | 0.0212 ± 0.00058 | 0.901 ± 0.025 | 0.759 ± 0.018 | 0.381 ± 0.02 | 0.157 ± 0.015 | 0.0632 ± 0.0042 | 0.0312 ± 0.002 | 0.0185 ± 0.0022 | 0.0217 ± 0.0019
20 | S68 BREAST | 1.18 ± 0.31 | 0.847 ± 0.12 | 0.765 ± 0.091 | 1.2 ± 0.31 | 0.888 ± 0.29 | 0.483 ± 0.068 | 0.0377 ± 0.0021 | 0.0367 ± 0.0055 | 0.792 ± 0.077 | 0.87 ± 0.13 | 0.693 ± 0.16 | 0.424 ± 0.016 | 0.205 ± 0.013 | 0.19 ± 0.015 | 0.037 ± 0.0046 | 0.0317 ± 0.0011
